Reference: patent US20240002374A1, “5-MEMBERED HETEROARYLAMINOSULFONAMIDES FOR TREATING CONDITIONS MEDIATED BY DEFICIENT CFTR ACTIVITY” (Genzyme Corporation, priority 2019, published 2024)

The compounds below were run against T1, CFTR (primary human bronchial epithelial cells from a ΔF508 homozygous CF donor, CF-HBE cells) (Homo sapiens, UniProt P13569, DEL508-508) (assay: TECC24 recording of CFTR-mediated transepithelial chloride transport (TECC24 AUC fold over DMSO @ 3 μM)). Details: 3 uM test agent; CF-HBE cells (ΔF508 homozygous) incubated 48 h; ratio of test agent AUC of forskolin-stimulated IEQ to vehicle (DMSO) AUC.
T1 construct: Primary human bronchial epithelial cells from a ΔF508 homozygous CF donor; host or cells: primary human bronchial epithelial cells (CF-HBE) from a ΔF508 homozygous CF donor
T1 sequence (P13569 with tags, fused parts or gaps DEL508-508): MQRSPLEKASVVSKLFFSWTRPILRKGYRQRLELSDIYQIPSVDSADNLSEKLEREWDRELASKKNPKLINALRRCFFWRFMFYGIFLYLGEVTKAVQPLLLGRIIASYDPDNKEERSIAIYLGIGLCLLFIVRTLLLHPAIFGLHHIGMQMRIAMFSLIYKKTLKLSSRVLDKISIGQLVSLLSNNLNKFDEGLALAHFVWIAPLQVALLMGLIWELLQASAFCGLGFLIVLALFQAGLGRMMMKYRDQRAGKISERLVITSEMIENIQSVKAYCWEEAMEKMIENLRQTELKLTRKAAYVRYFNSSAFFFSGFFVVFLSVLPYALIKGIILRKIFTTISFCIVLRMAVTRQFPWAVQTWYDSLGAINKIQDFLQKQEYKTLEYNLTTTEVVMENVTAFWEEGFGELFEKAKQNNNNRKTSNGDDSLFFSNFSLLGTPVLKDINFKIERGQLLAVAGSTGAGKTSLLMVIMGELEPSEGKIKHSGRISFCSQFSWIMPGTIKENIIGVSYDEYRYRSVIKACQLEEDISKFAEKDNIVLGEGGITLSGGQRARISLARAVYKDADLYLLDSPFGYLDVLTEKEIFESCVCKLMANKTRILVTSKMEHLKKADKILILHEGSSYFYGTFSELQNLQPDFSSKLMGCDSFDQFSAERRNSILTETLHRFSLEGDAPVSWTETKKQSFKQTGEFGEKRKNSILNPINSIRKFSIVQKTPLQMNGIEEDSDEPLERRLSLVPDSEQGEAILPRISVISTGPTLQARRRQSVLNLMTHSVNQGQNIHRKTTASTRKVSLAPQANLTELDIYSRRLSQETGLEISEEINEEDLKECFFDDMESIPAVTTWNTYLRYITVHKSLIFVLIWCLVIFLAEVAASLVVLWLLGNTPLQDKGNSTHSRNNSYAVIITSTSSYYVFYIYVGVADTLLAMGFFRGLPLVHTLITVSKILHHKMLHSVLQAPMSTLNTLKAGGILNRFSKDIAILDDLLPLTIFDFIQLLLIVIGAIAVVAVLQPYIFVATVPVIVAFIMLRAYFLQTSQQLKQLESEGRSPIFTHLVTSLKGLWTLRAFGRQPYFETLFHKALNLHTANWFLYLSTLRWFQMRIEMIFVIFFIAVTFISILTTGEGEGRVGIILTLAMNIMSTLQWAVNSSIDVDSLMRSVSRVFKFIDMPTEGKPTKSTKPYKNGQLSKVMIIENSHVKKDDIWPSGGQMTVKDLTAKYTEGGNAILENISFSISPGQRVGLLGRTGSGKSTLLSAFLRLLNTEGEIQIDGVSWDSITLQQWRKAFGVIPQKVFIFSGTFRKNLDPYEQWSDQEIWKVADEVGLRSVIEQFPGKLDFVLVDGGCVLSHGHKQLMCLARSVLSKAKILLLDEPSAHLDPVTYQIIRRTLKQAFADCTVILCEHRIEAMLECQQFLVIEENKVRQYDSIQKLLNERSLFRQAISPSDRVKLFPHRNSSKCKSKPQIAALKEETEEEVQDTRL
Format: cell-based
Procedure: Example 510: TECC24 AUC Fold Over DMSO @ 3 μM
The effects of a test agent on CFTR-mediated transepithelial chloride transport was measured using TECC24 recording analysis. Test agents were solubilized in DMSO. Solubilized test agents were mixed with incubation medium containing DMEM/F12, Ultroser G (2%; Crescent Chemical, catalog #67042), Hyclone Fetal Clone H (2%; GE Healthcare, catalog #SH30066.02), bovine brain extract (0.25%; Lonza, catalog #CC-4098), insulin (2.5 μg/mL), IL-13 (10 ng/mL), hydrocortisone (20 nM), transferrin (2.5 μg/mL), triiodothyronine (500 nM), ethanolamine (250 nM), epinephrine (1.5 μM), phosphoethanolamine (250 nM), and retinoic acid (10 nM). Primary human bronchial epithelial cells from a ΔF508 homozygous CF donor (CF-HBE cells; from University of North Carolina Cystic Fibrosis Tissue Procurement Center), grown on Transwell HTS 24-well cell culture inserts (Costar, catalog #3378), were exposed to test agents or controls dissolved in incubation medium. The CF-HBE cells were cultured at 36.5° C. for 48 h before TECC24 recordings were performed in the presence or absence of test agent, a positive control or vehicle (DMSO).
Following incubation, the transwell cell culture inserts containing the test agent or control-treated CF-HBE cells were loaded onto a TECC24 apparatus (TECC v7 or MTECC v2; EP Design) to record the transepithelial voltage (VT) and resistance (TEER) using 4 AgCl electrodes per well configured in current-clamp mode. The apical and basolateral bath solutions both contained (in mM) 140 NaCl, 5 KCl, 2 CaCl2), 1 MgCl2, 10 Hepes, and 10 glucose (adjusted to pH 7.4 with NaOH) […]. To inhibit basal Na+ absorption, the ENaC inhibitor benzamil (10 μM) was added to the bath. Then, the adenylate cyclase activator, forskolin (10 μM), was added to the bath to activate CFTR. The forskolin-stimulated Cl− transport was halted by addition of bumetanide (20 μM), an inhibitor of the basolateral chloride co-transporter NKCC1, to the bath to confirm that the detected signal was chloride dependent. VT and TEER recordings were digitally acquired at routine intervals using TECC or MTECC software (EP Design). VT and TEER were transformed into equivalent transepithelial Cl− current (IEQ), and the Area Under the Curve (AUC) of the IEQ time course between forskolin and bumetanide addition is generated using Excel (Microsoft). Efficacy is expressed as the ratio of the test agent AUC divided by vehicle AUC. EC50s based on AUC are generated using the non-linear regression log(agonist) vs. response function in Prism software (GraphPad) with Hill Slope fixed=1.
If a test agent increased the AUC of the forskolin-stimulated IEQ relative to vehicle in CF-HBE cells, and this increase was inhibited by bumetanide, then the test agent was considered a CFTR corrector.

Row | SMILES | TECC AUC vs. DMSO @ 3 uM
1 | Cc1cccc(C)c1-c1nc(NS(=O)(=O)c2ccccc2)sc1-c1cc(F)cc(OCC(C)(C)C)c1 [Example 1, N-(4-(2,6-Dimethylphenyl)-5-(3-fluoro-5-(neopentyloxy)phenyl)thiazol-2-yl)benzenesulfonamide] | A (“A” refers to AUC > 5)
2 | CC(C)c1ccccc1-c1nc(NS(=O)(=O)c2ccnc(N)c2)sc1-c1cc(F)cc(OCCC(C)(C)C)c1 [Example 33, 2-Amino-N-(5-(3-(3,3-dimethylbutoxy)-5-fluorophenyl)-4-(2-isopropylphenyl)thiazol-2-yl)pyridine-4-sulfonamide] | A (“A” refers to AUC > 5)
3 | CC(C)c1ccccc1-c1nc(NS(=O)(=O)c2cccc(N)c2F)sc1-c1cccc([C@@H]2CC[C@@H](OC(F)(F)F)C2)c1 [Example 48B2, 3-Amino-2-fluoro-N-(4-(2-isopropylphenyl)-5-(3-((1R,3R)-3-(trifluoromethoxy)cyclopentyl)phenyl)thiazol-2-yl)benzenesulfonamide] | B (“B” refers to AUC 2-5)
4 | Cc1cccc(C)c1-c1nc(NS(=O)(=O)c2ccccc2)sc1-c1cccc(OCCC(C)(C)C)c1 [Example 16, N-(5-(3-(3,3-Dimethylbutoxy)phenyl)-4-(2,6-dimethylphenyl)thiazol-2-yl)benzenesulfonamide] | A (“A” refers to AUC > 5)
5 | Cc1cccc(C)c1-c1nc(NS(=O)(=O)c2cn(C)nc2C)sc1-c1cccc(OCC(C)(C)C(F)(F)F)c1 [Example 6, N-(4-(2,6-Dimethylphenyl)-5-(3-(3,3,3-trifluoro-2,2-dimethylpropoxy)phenyl)thiazol-2-yl)-1,3-dimethyl-1H-pyrazole-4-sulfonamide] | B (“B” refers to AUC 2-5)
6 | Cc1cccc(C)c1-c1nc(NS(=O)(=O)c2ccnc(N)c2)sc1N1CCOC(CCCC(C)(C)C)C1 (stereo not drawn) [Example 37, 2-Amino-N-(5-(2-(4,4-dimethylpentyl)morpholino)-4-(2,6-dimethylphenyl)thiazol-2-yl)pyridine-4-sulfonamide] | A (“A” refers to AUC > 5)
7 | CC(C)(C)CCCOc1ccn(-c2sc(NS(=O)(=O)c3ccccc3)nc2-c2ccccc2C(F)(F)F)n1 [Example 40, N-(5-(3-((4,4-Dimethylpentyl)oxy)-1H-pyrazol-1-yl)-4-(2-(trifluoromethyl)phenyl)thiazol-2-yl)benzenesulfonamide] | A (“A” refers to AUC > 5)
8 | CC(C)(C)CCOc1cccc(-c2sc(NS(=O)(=O)c3cccc(NC(=O)C4(F)CC4)c3)nc2-c2ccccc2C(F)(F)F)c1 [Example 20, N-(3-(N-(5-(3-(3,3-Dimethylbutoxy)phenyl)-4-(2-(trifluoromethyl)phenyl)thiazol-2-yl)sulfamoyl)phenyl)-1-fluorocyclopropane-1-carboxamide] | A (“A” refers to AUC > 5)
9 | Nc1cccc(S(=O)(=O)Nc2nc(-c3ccccc3C(F)(F)F)c(-c3cccc([C@@H]4CC[C@H](OC(F)(F)F)C4)c3)s2)c1F [Example 47B1, 3-Amino-2-fluoro-N-(5-(3-((1R,3S)-3-(trifluoromethoxy)cyclopentyl)phenyl)-4-(2-(trifluoromethyl)phenyl)thiazol-2-yl)benzenesulfonamide] | A (“A” refers to AUC > 5)
10 | Cc1cccc(C)c1-c1nc(NS(=O)(=O)c2cccnc2N)sc1-c1cc(F)cc(OCCC(C)(C)C)c1 [Example 35, 2-Amino-N-(5-(3-(3,3-dimethylbutoxy)-5-fluorophenyl)-4-(2,6-dimethylphenyl)thiazol-2-yl)pyridine-3-sulfonamide] | A (“A” refers to AUC > 5)
11 | Cc1cccc(OC(C)C)c1-c1nc(NS(=O)(=O)c2ccnc(N)c2)sc1-c1cc(F)cc(OCCC(C)(C)C)c1 [Example 34, 2-Amino-N-(5-(3-(3,3-dimethylbutoxy)-5-fluorophenyl)-4-(2-isopropoxy-6-methylphenyl)thiazol-2-yl)pyridine-4-sulfonamide] | A (“A” refers to AUC > 5)
12 | Nc1cccc(S(=O)(=O)Nc2nc(-c3ccccc3C(F)(F)F)c(-c3cccc([C@H]4CC[C@@H](OC(F)(F)F)C4)c3)s2)c1F (single isomer, unassigned) [Example 47A1] | C (“C” refers to AUC < 2)
13 | O=S(=O)(Nc1nc(-c2ccccc2C(F)(F)F)c(-c2cccc([C@H]3CC[C@H](OC(F)(F)F)C3)c2)s1)c1ccccc1 (single isomer, unassigned) [Example 44A2] | C (“C” refers to AUC < 2)
14 | Cc1cccc(C)c1-c1nc(NS(=O)(=O)c2ccc(F)c(N)c2)sc1-c1cc(F)cc(OCCC(C)(C)C)c1 [Example 42, 3-Amino-N-(5-(3-(3,3-dimethylbutoxy)-5-fluorophenyl)-4-(2,6-dimethylphenyl)thiazol-2-yl)-4-fluorobenzenesulfonamide] | B (“B” refers to AUC 2-5)
15 | Cc1cccc(C)c1-c1nc(NS(=O)(=O)c2ccccc2)sc1N1C[C@H](OC(C)(C)C)C[C@H]1C [Example 402, N-[4-(2,6-dimethylphenyl)-5-[(2R,4R)-2-methyl-4-[(2-methylpropan-2-yl)oxy]pyrrolidin-1-yl]-1,3-thiazol-2-yl]benzenesulfonamide] | A (“A” refers to AUC > 5)
16 | Cc1cccc(C)c1-c1nc(NS(=O)(=O)c2cccc(C(F)F)c2)sc1-c1cccc(OCCC(C)(C)C)c1 [Example 22, 3-(Difluoromethyl)-N-(5-(3-(3,3-dimethylbutoxy)phenyl)-4-(2,6-dimethylphenyl)thiazol-2-yl)benzenesulfonamide] | A (“A” refers to AUC > 5)
17 | CC(C)c1ccccc1-c1nc(NS(=O)(=O)c2ccccc2)sc1-c1cc(F)cc(OCCC(C)(C)C)c1 [Example 3, N-(5-(3-(3,3-Dimethylbutoxy)-5-fluorophenyl)-4-(2-isopropylphenyl)thiazol-2-yl)benzenesulfonamide] | A (“A” refers to AUC > 5)
18 | CC(C)c1ccccc1-c1nc(NS(=O)(=O)c2cccc(N)c2F)sc1-c1cccc(OCC(F)(F)C(C)(C)C)c1 [Example 23, 3-Amino-N-(5-(3-(2,2-difluoro-3,3-dimethylbutoxy)phenyl)-4-(2-isopropylphenyl)thiazol-2-yl)-2-fluorobenzenesulfonamide] | A (“A” refers to AUC > 5)
19 | Cc1cccc(C)c1-c1nc(NS(=O)(=O)c2cc(N)ccc2F)sc1-c1ccc(F)c(OCC(C)(C)C(F)(F)F)c1 [Example 12, 5-Amino-N-(4-(2,6-dimethylphenyl)-5-(4-fluoro-3-(3,3,3-trifluoro-2,2-dimethylpropoxy)phenyl)thiazol-2-yl)-2-fluorobenzenesulfonamide] | A (“A” refers to AUC > 5)
20 | CC(C)c1ccccc1-c1nc(NS(=O)(=O)c2cccc(N)n2)sc1N1CCOC2(CCC(C)(C)C2)C1 (stereo not drawn) [Example 349, 6-amino-N-[5-(3,3-dimethyl-6-oxa-9-azaspiro[4.5]decan-9-yl)-4-(2-propan-2-ylphenyl)-1,3-thiazol-2-yl]pyridine-2-sulfonamide] | A (“A” refers to AUC > 5)
21 | Cc1cccc(C)c1-c1nc(NS(=O)(=O)c2cccc(NC3CC(C)(O)C3)c2)sc1-c1cccc(OCC(C)(C)C(F)(F)F)c1 (stereo not drawn) [Example 13, N-(4-(2,6-Dimethylphenyl)-5-(3-(3,3,3-trifluoro-2,2-dimethylpropoxy)phenyl)thiazol-2-yl)-3-((3-hydroxy-3-methylcyclobutyl)amino)benzenesulfonamide] | A (“A” refers to AUC > 5)
